Key:
[1] = test system: type II 5α-reductase [II型5α-还原酶]; experiment: Spectrophotometric (NADPH, 340 nm) 5α-reductase inhibition; type: biochemical; conditions: for mean inhibition rate: NADPH consumption, 10 min, 37 °C, serial concentrations, average; for inhibition rate compared with finasteride: versus finasteride [非那甾胺]
[2] = test system: oxidatively damaged erythrocytes [氧化损伤红细胞]; conditions: cited from earlier work
[3] = test system: type II 5α-reductase [II型5α-还原酶]; experiment: DHT kit assay of 5α-reductase inhibition; type: biochemical; conditions: 37 °C, 30 min
autoxidation [自氧化] = conditions: cited from earlier work
[4] = test system: platelets of hyperlipidemia patients and healthy persons [高脂血症患者和健康人血小板]; conditions: in vitro, blood, several inducers; cited from earlier work
[5] = test system: hyperlipidemia model rats [高血脂症模型大鼠]; conditions: rat; cited from earlier work
[6] = test system: prostate smooth muscle α1-AR [前列腺平滑肌α1-AR]; experiment: Competitive inhibition of 125IBE binding to α1-AR of prostate smooth muscle membranes; design: species or system rat; conditions: high dose
[7] = test system: rat cerebral ischemia-reperfusion [大鼠脑缺血再灌注]; conditions: cited from earlier work
[8] = test system: rat myocardium with ischemia-reperfusion injury [大鼠缺血再灌注损伤心肌]; conditions: cited from earlier work
[9] = test system: experimental hyperlipidemic rats [实验性高脂血症大鼠]; conditions: rat; cited from earlier work

## COc1ccc(C[C@@H]2c3cc(Oc4cc(C[C@@H]5c6cc(O)c(OC)cc6CCN5C)ccc4O)c(OC)cc3CCN2C)cc1 [异莲心碱]
[1]
  mean inhibition rate: 65.48%
  inhibition rate compared with finasteride: 强于非那甾胺
[2]
  protection of oxidatively damaged erythrocytes: 对氧化损伤红细胞有保护作用
[3]
  inhibition of 5α-reductase activity by change of DHT concentration: 有明显抑制作用
Autoxidation [自氧化]
  inhibition of autoxidation: 能显著抑制自氧化

## COc1ccc(C[C@@H]2c3cc(Oc4cc(C[C@@H]5c6cc(OC)c(OC)cc6CCN5C)ccc4O)c(OC)cc3CCN2C)cc1 [甲基莲心碱]
[1]
  mean inhibition rate: 68.22%
  inhibition rate compared with finasteride: 强于非那甾胺
[4]
  inhibition of platelet aggregation: 可明显抑制多种诱聚剂诱导的高脂血症患者和健康人血小板聚集
[5]
  antioxidant action of the organism: 增强机体抗氧化作用
  degree of lipid peroxidation: 减轻脂质过氧化的程度
  effect on blood lipids: 具有显著的抑制作用
[6]
  inhibition of prostate smooth muscle α1-AR: 能抑制前列腺平滑肌α1-AR
[3]
  inhibition of 5α-reductase activity by change of DHT concentration: 有明显抑制作用

## COc1cc2c(cc1OC)[C@@H](Cc1ccc(O)c(Oc3cc4c(cc3OC)CCN(C)[C@@H]4Cc3ccc(O)cc3)c1)N(C)CC2 [莲心碱]
[1]
  mean inhibition rate: 71.43%
  inhibition rate compared with finasteride: 强于非那甾胺
[1]; by NADPH determination
  inhibition of 5α-reductase activity (in words): 有明显抑制作用
[7]
  C-Fos protein expression after cerebral ischemia-reperfusion: 抑制脑缺血再灌注后NOS和C-Fos蛋白的表达
  NOS expression after cerebral ischemia-reperfusion: 抑制脑缺血再灌注后NOS和C-Fos蛋白的表达
  extent of infarct lesion: 可显著减少大鼠梗死病灶范围
[8]
  area of myocardial infarction: 可减少心肌梗死的面积
  damage of myocardial cells: 减轻心肌细胞的损伤
  protection of ischemia-reperfusion injured myocardium: 有保护作用
[6]
  inhibition of prostate smooth muscle α1-AR: 能抑制前列腺平滑肌α1-AR
[3]
  inhibition of 5α-reductase activity by change of DHT concentration: 有明显抑制作用
[9]
  atherosclerosis index: 显著降低
  serum low-density lipoprotein cholesterol: 显著降低
  serum total cholesterol: 显著降低
  serum triglycerides: 显著降低

## CC(C)(C)NC(=O)[C@H]1CC[C@H]2[C@@H]3CC[C@H]4NC(=O)C=C[C@]4(C)[C@H]3CC[C@]12C [非那雄胺, reference compound]
[1]
  mean inhibition rate: 57.14%

Source: CN101862374A, “莲子心及其提取物的新用途” (Individual, priority 2010, dated 2010)
